Series [1] concerns panel of experts in the sensory evaluation of foods and beverages. In words: Sensory evaluation of sweetness linger by expert panel. Conditions: for Sweetness linger / Sweetness linger rating: scale 0=no to 5=high sweetness linger; for Sweetness Linger rating as defined by the protocol: reference points of the scale, REBA control sample 500 ppm. In kind it is in vivo. As to the method: Sensory evaluation of the samples prepared in Example Set G was carried out under the following protocol, similar to that described hereinabove. In this test protocol, none of the samples were swallowed. All samples were expectorated and the mouth was rinsed with water after the tasting. Immediately upon sensing maximal sweetness, the sample was expectorated, the mouth was rinsed with water and the rate of sweetness decay (“Sweetness Linger”) was measured, where attention was focused on the sweetness 3-4 min after the water rinse. After sample tasting was complete, a salty oyster cracker was chewed followed by a water rinse, and at least 5 minutes followed before tasting the next sample. The sweetness linger was rated by a panel of experts in the sensory evaluation of foods and beverages using the following scale: 0=no sweetness linger, 1=very slight sweetness linger, 2=slight sweetness linger, 3=moderate sweetness linger, 4=moderately high sweetness linger, 5=high sweetness linger.
The “Sweetness Linger” rating for sucrose observed by this protocol is defined as 0. The Sweetness Linger of a 500 ppm of REBA control sample is defined as 5. Experimental samples were tasted by the same protocol, always allowing sufficient time between samples to ensure re-equilibration of the sensory system. Re-tasting of control samples during the course of the experiment was allowed and encouraged.
The comparison taste test was performed between two controls and addition of sweet taste improving additive on the onset and/or sweetness linger.
Sweet taste improving compositions were combined with a REBA solution to determine their effect on sweetness linger. Screening of the initial sample, or further dilutions, allowed identification of concentrations which were just above-threshold, herein defined as “near-threshold concentrations.” The near-threshold additive concentrations, a 6- to 100-fold higher higher additive concentration (depending on the off-taste intensity), and a mid-level additive concentration (halfway between the near-threshold and higher additive concentration) were evaluated to determine the effect on sweetness linger of a REBA solution.
Formulations of a 500 ppm REBA in a phosphoric acid solution (75%) at a pH of 2.5 with phosphoric acid or a pH of 3.1 with citric acid and potassium citrate were prepared prior to the addition of the additives at the three levels of concentration.
\Sensory evaluation using the protocol described in Example Set C then was used to evaluate the sweetness linger of the REBA solutions.

Series [2] can be described thus: Rate of dissolution of rebaudioside A forms in H2O at 25° C. It counts as physicochemical. The conditions noted are these: in words.

rebaudioside A: the Sweetness linger in series [1] (Example Set G: 400 ppm REBA in citric acid/potassium citrate composition equivalent to diet lemon-lime beverage, with or without additive) worked out at 5; in series [1] (Example Set H: REBA in carbon-treated water, phosphoric acid (75%) to pH 2.4-2.5, with or without additive) it was 5. Besides, the “Sweetness Linger rating as defined by the protocol” value in series [1] was 5. In the case of rebaudioside A [Form 3], the “Rate of dissolution in H2O at 25° C.” value in series [2] is listed as “High”. On the same count and under the same terms, the entry for rebaudioside A [Form 1] is “Very low”. For `OC[C@H]1O[C@@](CO)(O[C@H]2O[C@H](CO)[C@@H](O)[C@H](O)[C@H]2O)[C@@H](O)[C@@H]1O` [sucrose], the Sweetness linger rating in series [1] (Set G control: 8 g of sugar in 100 ml of citrate buffer) was determined as 0; in series [1] (Set H control: 10 g of sugar in 100 ml carbon treated water, phosphoric acid to pH 2.4-2.5) it was 0. The “Sweetness Linger rating as defined by the protocol” value in series [1] amounted to 0. Consider rebaudioside A [Form 2], for which the “Rate of dissolution in H2O at 25° C.” value in series [2] is listed as “Intermediate”. For the compound rebaudioside A [Form 4], in series [2], the “Rate of dissolution in H2O at 25° C.” value is reported as “High”.

Values taken from US20070116823A1, “HIGH-POTENCY SWEETENER FOR HYDRATION AND SWEETENED HYDRATION COMPOSITION” (THE COCA-COLA COMPANY, priority 2005, published 2007).
